Data on 89 compounds can be found in a melting point compilation (Tetko et al.; mined from patent text by program, amines drawn as free bases though some values may be those of a salt).

In general, melting point refers to the temperature of the solid-liquid transition.

Take `CCOC(=O)C1=C(C)NC(CSCC2CO2)=C(C(=O)OCC)C1c1cccc([N+](=O)[O-])c1` (centres undefined): the melting point lay in the range of 107 to 109 °C.

On to `CC(=O)OCc1nc(Cl)cc(N2CCCC2)n1`, for which the melting point lay in the range of 101 to 103 °C.

With `C[Si](C)(C)N1CCCCCN([Si](C)(C)C)CCN([Si](C)(C)C)CC1`, the melting point was in the range of 78 to 86.5 °C.

With `COc1cccc(CO)c1F`, the melting point was in the range of 53 to 57 °C. Then `Cc1cc(-c2ccc(Cl)cc2)nc(-c2ccnc(-c3cccc(S(N)(=O)=O)c3)c2)n1`, with 224 °C.

`CCCS(=O)(=O)Nc1ccc(C(=O)CC#N)cc1` had a melting point of 150 to 151 °C. For `CCc1cc(C(C)=O)nn1-c1ccc([N+](=O)[O-])cc1`, the melting point fell in the range of 93 to 95 °C. As to `N#Cc1c(N2CCCCC2)cc(-c2cccs2)c2c1C(=O)c1ccccc1-2`, the melting point was in the range of 226 to 228 °C. Then `CN1CCN(C2=Nc3ccccc3-n3ccc4cc(Br)cc2c43)CC1`, with 157 to 159 °C.

In turn, `CCOC(=O)c1cn(-c2ccc(OC)cc2)c2cc(F)c(F)cc2c1=O` returned a melting point of 212 to 214 °C. In turn, `COC(=O)c1ccc(N2CCN(Cc3ccccc3)CC2)cc1` yielded a melting point of 105 to 107 °C. Then `CCc1c(C)nc2ccc(C)cn2c1=O`, with 154 to 156 °C. Compound `Cc1ccccc1C(=O)c1ccc(CC#N)n1C` came in with a melting point of 90 to 92.5 °C. Then `O=C1Nc2c(F)cc(CN3C(=O)CSC3=O)cc2C1=Cc1cc(CN2CCOCC2)c[nH]1`, with 246 to 248 °C; and `CCN(CC)CCCn1ccc2cc(Nc3ncnc4cc(-c5ccccc5)sc34)ccc21`, with 178 to 180 °C; and `O=c1ccc(S(=O)(=O)c2oc3ccc(Cl)cc3c2-c2ccccc2)n[nH]1`, with over 240 °C.

For `COc1ccc(C(=O)C(=O)c2ccc(-c3ccc(F)cc3)s2)cc1C`, the melting point was 165 °C.

`CCOC(=O)C=Cc1ccc([N+](=O)[O-])c(O)c1` registered a melting point of 95 °C. Then `CN(C)N=Nc1cscc1C(N)=O`, with 168 to 172 °C; and `O=C(O)c1cc2cc(OCCNC[C@H](O)COc3ccccc3)ccc2s1`, with 261 to 262 °C; and `Cc1ccc(S(=O)(=O)NCl)cc1`, with 201 to 206 °C. With `COC1=C(OC)C(=O)C(CCCCCCCCCO)=C(C)C1=O`, the melting point was found to be 45 °C. Then `O=C(NC1CCc2[nH]c3ccc(OC(F)(F)F)cc3c2C1)OCc1ccccc1` (centres undefined), with 123 to 126 °C; and `Cc1ccc(-n2cc(-c3cccn4nc(Nc5ccc(C6CCN(C(=O)OC(C)(C)C)CC6)cc5)nc34)cn2)cc1`, with 124 to 125 °C.

`O=C1c2cc([N+](=O)[O-])ccc2CC2CCCCN12` (centres undefined) gave a melting point of 137 to 142 °C. With `O=C(CC1COC1)N[C@H]1CC[C@H](CCN2CCN(c3cccc4c3OCO4)CC2)CC1`, the melting point was found to be 190 °C. Then `Cc1ccn2c(C)c(CCc3ccc4nc(NC(=N)N)oc4c3)nc2c1`, with 195 to 196 °C. The compound `COc1cc2c(cc1F)CCN(Nc1ccncc1)C2` gave a melting point of 216 to 218 °C. In turn, `CSc1ccc(C2=C(c3ccc(Cl)cc3)CCC2)cc1` showed a melting point of 72 to 74 °C.

Compound `C=C(C)c1cn(C2OC(CO)C(O)C2O)c(=O)[nH]c1=O` (centres undefined) gave a melting point of 212 to 215 °C. On to `CS(=O)(=O)c1ccc(-c2sc(-c3cccs3)nc2-c2ccc(F)cc2)cc1`, for which the melting point lay in the range of 194 to 195 °C. The compound `CCOC(=O)c1ncc2[nH]c3ccc(C(=O)OCc4ccccc4)cc3c2n1` gave a melting point of 271 to 272 °C.

As to `Cc1nc(N2CCN(CCC3CC3)C2=O)sc1-c1cc[nH]n1`, the melting point is 147 to 149 °C. Then `CCOC(Nc1ccccc1)(OCC)c1ccnc(C(=O)c2ccccc2)c1`, with 114 to 115 °C; and `CCCCOc1ccc(S(C)(=O)=O)cc1C(N)=O`, with 146 to 150 °C; and `CC(C)C(C)(C)C(=O)C(Cc1ccc(Cl)cc1)n1cncn1` (centres undefined), with 91 to 94 °C. Then `Cc1oc(-c2ccccc2)nc1CCCc1ccc(CCCC2OC(=O)NC2=O)cc1` (centres undefined), with 119 to 120 °C; and `Cc1ccc(C=NNC(=O)c2ccc(O)cc2)cc1`, with 253 °C; and `CCOC(=O)N1CCC(N=c2oc3ncnc(N)c3n2Cc2ccc(F)cc2)CC1`, with 175 °C.

The compound `Cc1cc2cc(CN3CCCC3)cnc2cc1NC(=O)c1ccc(-c2ccccc2F)cc1` had a melting point of 148 to 149 °C.

For the compound `CCN(CC)c1nc(O)cc(OC)n1`, the melting point fell in the range of 165 to 166 °C. Then `Cc1nc(Cl)cc(NN)n1`, with 146 °C; and `Cc1cccc2c1C(=O)c1cc(CC(=O)O)ccc1OC2`, with 183 to 185 °C. Then `COC(=O)c1cc2c(nc1C)C(CO)CCCC2` (centres undefined), with 55 to 56 °C; and `O=C(CS(=O)Cc1ccc2c(c1)OCO2)NO` (centres undefined), with 206 °C; and `O=C(CCl)C1=NOC(c2c(F)cccc2F)C1` (centres undefined), with 82.1 to 83.4 °C. The compound `CC(=O)n1c(C(F)(F)F)nc(-c2ccc(S(C)(=O)=O)cc2)c1-c1cc(C)cc(Cl)c1` returned a melting point of 257 °C. Consider `COc1nc(OC)nc(SC(C(=O)O)C2CCCC2)n1` (centres undefined), for which the melting point lay within 106 to 110 °C. In turn, `CS(=O)(=O)Cc1ccc(C(=NNC(N)=O)c2ccc(Cl)cc2)cc1` had a melting point of 189 to 191 °C. The compound `COC(=O)Nc1ccc(N)c([N+](=O)[O-])c1` returned a melting point of 171 to 172 °C.

As to `C=CCOc1cc(N2C(=O)C3=C(CCCC3)C2=O)ccc1Cl`, the melting point was in the range of 118 to 120 °C. In the case of `CS(=O)(=O)c1ccccc1C(=O)Cl`, the melting point lay in the range of 135 to 137 °C.

With `CC(C)(N)COc1ccc(O)c(C(N)=O)c1`, the melting point is 115 to 117 °C. Then `CN1CCN(c2c(F)cc3c(=O)c(C(=O)O)cn(C4CC4)c3c2C#N)CC1`, with 264 to 265 °C. Consider `O=C(O)C1=CCCN1C(=O)CCSSCCC(=O)N1CCC=C1C(=O)O`, for which the melting point lay in the range of 158 to 160 °C.

Regarding `CC(C)CN1C(=O)C2CC2(c2ccc(N)cc2)C1=O` (centres undefined), the melting point is 100 to 101 °C. Compound `COc1ccc(-c2ccc(N3CCCN(c4ccc(-c5ccc(OC)cc5OC)cn4)CC3)nc2)c(OC)c1` yielded a melting point of 161 to 163 °C.

On to `CC(C)(C)OC(=O)NC[C@H]1CC[C@H](CI)CC1`, for which the melting point is 81 to 83 °C. Then `CC(=O)c1ccc(NC(=O)C(N)c2ccc3c(c2)C(C)(C)CCC3(C)C)cc1` (centres undefined), with 138 to 139 °C; and `Cc1cccc(N(c2cccc(C)c2)c2c(N(c3cccc(C)c3)c3cccc(C)c3)c3ccccc3c3ccccc23)c1`, with 223 to 224 °C. Then `O=C(O)C1=NOC2(CCC(C3CCCCC3)CC2)C1` (centres undefined), with 139 to 142 °C; and `CNNC(=O)c1ccc(Cl)cc1`, with 130 to 131 °C; and `N#Cc1ccc(NCC(=O)N2CCC(Cc3ccc(F)cc3)CC2)cc1`, with 204 to 206 °C. Compound `C[N+]1([O-])CCC(=C(c2ccsc2)c2ccsc2)CC1` (centres undefined) displayed a melting point of 92 to 96 °C.

Consider `COc1cc2c(Nc3ccc(Sc4nccn4C)c(Cl)c3)c(C#N)cnc2cc1N1CCC(N2CCN(C)CC2)CC1`, for which the melting point was in the range of 235 to 237 °C. The compound `CC(C)CC(SC1CCCCC1)c1c(O)cc(-c2ccccc2)oc1=O` (centres undefined) gave a melting point of 210 to 212 °C. Take `O=C1NC(=O)C(Cc2ccc(N3CCC(NC[C@H](O)COc4cccnc4)CC3)cc2)S1` (some centres undefined): the melting point was 130 to 132 °C. Then `CCOC(=O)c1cccc(NC(=O)c2ccc(OC)c(NCc3cccs3)c2)c1`, with 153 to 155 °C; and `CCCc1nc2c(N)nc(C)c(C)c2n1CCCCN(O)C(=O)c1ccccc1`, with 132 to 134 °C; and `COc1ccc(-c2cc(=O)c3ccc(OCC4CO4)cc3o2)cc1OC` (centres undefined), with 148 to 149 °C. Compound `COc1cccc([C@H]2O[C@H](CC(=O)Nc3cc(CCC(=O)O)ccc3OCCCc3ccccc3)C(=O)N(CC(C)(C)CO)c3ccc(Cl)cc32)c1OC` came in with a melting point of 162 to 165 °C. Consider `CC#Cc1ccc(NC(=O)c2ccccc2NCc2ccc(OC)nc2)cc1C(F)(F)F`, for which the melting point lay in the range of 123 to 124 °C.

In the case of `Cn1c(=O)oc2cc3c(cc21)C1(CO3)C(=O)N(C(c2ccccc2)c2ccccc2)c2ccccc21` (centres undefined), the melting point is over 250 °C. In turn, `O=C(Nc1cc(C(F)(F)F)ccc1N1CCCCC1)c1ccncc1` registered a melting point of 96 to 98 °C. Then `CCCCCCCCCCCCCCCCCCOc1cc(C(N)=O)cc(N(CC(=O)OCc2ccccc2)CC(=O)OCc2ccccc2)c1`, with 112 to 114 °C. Then `CC(=O)OCCCc1cc(C=C2SCN(C)C2=O)cc(CCCOC(C)=O)c1O`, with 112 to 116 °C; and `O=C(O)CCc1cnoc1-c1ccccc1`, with 90 to 91 °C. With `O=C(Nc1ccc(-n2nc(C(F)(F)F)cc2OC(F)F)cc1)c1ccncc1`, the melting point lay in the range of 154 to 155 °C. `CCCCSC(=S)N1C(CO)Cc2c([nH]c3ccccc23)C1C` (centres undefined) yielded a melting point of 110 to 113 °C. Then `COc1cc(-c2cnc3[nH]cc(C(=O)C(C)(C)CO)c3n2)cc(OC)c1OC`, with 227 to 229 °C; and `CC1(C)OC(=O)C(COS(C)(=O)=O)(c2ccc(Cl)cc2Cl)O1` (centres undefined), with 98 to 100 °C; and `Fc1ccc2c(C3=CCC4(CC3)OCCO4)c[nH]c2c1`, with 196 to 197 °C. As to `CC(C)Oc1cccc(-c2nn(C(C)c3oc4ccccc4c(=O)c3-c3cccc(F)c3)c3ncnc(N)c23)c1` (centres undefined), the melting point lay within 153 to 157 °C. Then `COc1cc2c(=O)c3c(Cl)ccc([N+](=O)[O-])c3[nH]c2cc1Cl`, with 284 to 285 °C; and `COc1cccc2c(N(C)c3ccccc3)nc(N(C)c3ccccc3)nc12`, with 169 to 170 °C; and `N#CCc1cccc(Cc2ccccc2)c1`, with 136 to 137 °C. The compound `CCCCc1nc2cccc(C(=O)OC)c2n1Cc1ccc(-c2ccccc2N)cc1` registered a melting point of 97 to 99 °C. Then `CCN(Cc1ccccc1Oc1ccccc1)c1ccc(C(=O)O)cn1`, with 170 to 172 °C; and `COc1ccc(F)cc1OCCNCCCc1c[nH]c2ccc(F)cc12`, with 119 to 122 °C.
